Patent US9938273B2 (Plexxikon Inc., priority 2015, dated 2018)

What was measured:
[1] = system: MOLM-14 F691L cells, FLT3 ITD and FLT3 F691L; experiment: Cell proliferation assay (CellTiter-Glo), MOLM-14 F691L; format: cell-based; conditions: Homo sapiens, 72 h, 3d-Growth, GMean
Outline: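 Three-day growth at 37 °C, 5% CO2 under compound (1 μM top final, 1:3 dilutions, eight points, 0.2% DMSO), read as ATP luminescence by CellTiter-Glo for IC50. Cells: MOLM-14 with FLT3 ITD plus D835Y or F691L, and IL-3-deprived Ba/F3 transfected with FLT3 ITD/D835Y, 1×10^4 per well.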

FLT3-ITD = target: T1, FLT3-ITD (Homo sapiens, UniProt P36888); experiment: AlphaScreen kinase assay with recombinant enzyme, FLT3-ITD; format: biochemical; conditions: 8pt; read-out: FLT3_ITD 8pt: IC50
T1 sequence (P36888 1-993): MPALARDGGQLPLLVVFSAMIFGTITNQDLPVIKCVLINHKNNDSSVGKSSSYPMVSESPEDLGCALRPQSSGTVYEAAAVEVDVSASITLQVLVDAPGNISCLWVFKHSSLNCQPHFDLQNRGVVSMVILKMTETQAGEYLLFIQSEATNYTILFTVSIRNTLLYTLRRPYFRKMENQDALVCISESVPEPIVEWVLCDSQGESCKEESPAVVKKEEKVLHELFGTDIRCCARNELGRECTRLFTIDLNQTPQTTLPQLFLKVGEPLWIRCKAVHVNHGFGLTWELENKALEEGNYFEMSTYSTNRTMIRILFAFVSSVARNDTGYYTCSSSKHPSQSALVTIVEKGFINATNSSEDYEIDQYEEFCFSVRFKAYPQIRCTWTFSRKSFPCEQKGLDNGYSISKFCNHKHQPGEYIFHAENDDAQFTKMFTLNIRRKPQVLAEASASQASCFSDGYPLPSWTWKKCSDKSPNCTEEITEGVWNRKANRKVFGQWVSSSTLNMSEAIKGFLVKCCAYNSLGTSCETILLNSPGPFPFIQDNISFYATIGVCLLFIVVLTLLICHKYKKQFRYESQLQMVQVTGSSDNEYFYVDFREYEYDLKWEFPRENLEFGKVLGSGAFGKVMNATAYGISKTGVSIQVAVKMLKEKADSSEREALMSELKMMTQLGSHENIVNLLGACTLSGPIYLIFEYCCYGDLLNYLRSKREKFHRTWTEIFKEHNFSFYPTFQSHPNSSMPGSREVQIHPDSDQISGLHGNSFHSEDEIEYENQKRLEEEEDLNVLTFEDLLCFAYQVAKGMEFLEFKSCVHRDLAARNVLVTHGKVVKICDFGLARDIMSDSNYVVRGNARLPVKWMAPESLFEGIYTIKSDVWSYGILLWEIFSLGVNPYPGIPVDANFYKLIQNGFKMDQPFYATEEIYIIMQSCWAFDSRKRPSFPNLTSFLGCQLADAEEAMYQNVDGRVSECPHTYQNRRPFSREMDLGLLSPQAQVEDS
Outline: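 Read-out: AlphaScreen proximity signal at 580 nm (680 nm excitation), lost as peptide tyrosine phosphorylation falls. Substrate Biotin-GG(EEEEY)10EE at 30 nM; IC50 runs at 10 μM (FLT3 mutants) or 100 μM (c-KIT) final. Donor beads 20 min, then acceptor beads 60 min, room temperature.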

| SMILES | IC50 [1] | IC50 (FLT3-ITD) |
| --- | --- | --- |
| CC(C)(C#N)NC(=O)c1cccc(-c2cnc3[nH]c(-c4cnc(C5CC5)nc4)cc3c2)n1 [Compound P-0166, N-(1-cyano-1-methyl-ethyl)-6-[2-(2-cyclopropylpyrimidin-5-yl)-1H-pyrrolo[2,3-b]pyridin-5-yl]pyridine-2-carboxamide] | 0.0001 to 10 µM | 0.0001 to 10 µM |
| CC(C)(C#N)NC(=O)c1cccc(-c2cnc3[nH]c(-c4cnn(CCC#N)c4)cc3c2)n1 [Compound P-0170, 6-[2-[1-(2-cyanoethyl)pyrazol-4-yl]-1H-pyrrolo[2,3-b]pyridin-5-yl]-N-(1-cyano-1-methyl-ethyl)pyridine-2-carboxamide] | 0.0001 to 10 µM | 0.0001 to 10 µM |
| CC(C)(C#N)NC(=O)c1cccc(-c2cnc3[nH]c(-c4cnn(Cc5ccccc5)c4)cc3c2)n1 [Compound P-0171, 6-[2-(1-benzylpyrazol-4-yl)-1H-pyrrolo[2,3-b]pyridin-5-yl]-N-(1-cyano-1-methyl-ethyl)pyridine-2-carboxamide] | 0.0001 to 10 µM | 0.0001 to 10 µM |
| COCCn1cc(-c2cc3cc(-c4cccc(C(=O)NC(C)(C)C#N)n4)cnc3[nH]2)cn1 [Compound P-0172, N-(1-cyano-1-methyl-ethyl)-6-[2-[1-(2-methoxyethyl)pyrazol-4-yl]-1H-pyrrolo[2,3-b]pyridin-5-yl]pyridine-2-carboxamide] | 0.0001 to 10 µM | 0.0001 to 10 µM |
| CC(C)(C#N)NC(=O)c1cccc(-c2cnc3[nH]c(-c4cnn(CCN5CCOCC5)c4)cc3c2)n1 [Compound P-0174, N-(1-cyano-1-methyl-ethyl)-6-[2-[1-(2-morpholinoethyl)pyrazol-4-yl]-1H-pyrrolo[2,3-b]pyridin-5-yl]pyridine-2-carboxamide] | 0.0001 to 10 µM | 0.0001 to 10 µM |
| CC(C)(C#N)NC(=O)c1cccc(-c2cnc3[nH]c(C4=CCN(C(=O)C5CC5)CC4)cc3c2)n1 [Compound P-0181, N-(1-cyano-1-methyl-ethyl)-6-[2-[1-(cyclopropanecarbonyl)-3,6-dihydro-2H-pyridin-4-yl]-1H-pyrrolo[2,3-b]pyridin-5-yl]pyridine-2-carboxamide] | 0.0001 to 10 µM | 0.0001 to 10 µM |
| CC(C)(C#N)NC(=O)c1cccc(-c2cnc3[nH]c(C4=CCNCC4)cc3c2)n1 [Compound P-0182, N-(1-cyano-1-methyl-ethyl)-6-[2-(1,2,3,6-tetrahydropyridin-4-yl)-1H-pyrrolo[2,3-b]pyridin-5-yl]pyridine-2-carboxamide] | 0.0001 to 10 µM | 0.0001 to 10 µM |
| CC(C)(C#N)NC(=O)c1cccc(-c2cnc3[nH]c(-c4cn[nH]c4)cc3c2)n1 [Compound P-0183, N-(1-cyano-1-methyl-ethyl)-6-[2-(1H-pyrazol-4-yl)-1H-pyrrolo[2,3-b]pyridin-5-yl]pyridine-2-carboxamide] | 0.0001 to 10 µM | 0.0001 to 10 µM |
| CC(C)(C#N)NC(=O)c1cccc(-c2cnc3[nH]c(-c4cnn(C5CCNCC5)c4)cc3c2)n1 [Compound P-0187, N-(1-cyano-1-methyl-ethyl)-6-[2-[1-(4-piperidyl)pyrazol-4-yl]-1H-pyrrolo[2,3-b]pyridin-5-yl]pyridine-2-carboxamide] | 0.0001 to 10 µM | 0.0001 to 10 µM |

Second part, the compound after the results:

| IC50 [1] | IC50 (FLT3-ITD) | SMILES |
| --- | --- | --- |
| 0.0001 to 10 µM | 0.0001 to 10 µM | CC(C)(C#N)NC(=O)c1cccc(-c2cnc3[nH]c(-c4cnn(C(F)F)c4)cc3c2)n1 [Compound P-0164, N-(2-cyanopropan-2-yl)-6-(2-(1-(difluoromethyl)-1H-pyrazol-4-yl)-1H-pyrrolo[2,3-b]pyridin-5-yl)picolinamide] |
| 0.0001 to 10 µM | 0.0001 to 10 µM | CC(C)(C#N)NC(=O)c1cccc(-c2cnc3[nH]c(-c4cnn(C5CC5)c4)cc3c2)n1 [Compound P-0165, N-(1-cyano-1-methyl-ethyl)-6-[2-(1-cyclopropylpyrazol-4-yl)-1H-pyrrolo[2,3-b]pyridin-5-yl]pyridine-2-carboxamide] |
| 0.0001 to 10 µM | 0.0001 to 10 µM | CC(C)(C#N)NC(=O)c1cccc(-c2cnc3[nH]c(-c4ccc(C5CC5)nc4)cc3c2)n1 [Compound P-0168, N-(1-cyano-1-methyl-ethyl)-6-[2-(6-cyclopropyl-3-pyridyl)-1H-pyrrolo[2,3-b]pyridin-5-yl]pyridine-2-carboxamide] |
| 0.0001 to 10 µM | 0.0001 to 10 µM | Cc1nc(C(C)C)sc1-c1cc2cc(-c3cccc(C(=O)NC(C)(C)C#N)n3)cnc2[nH]1 [Compound P-0169, N-(1-cyano-1-methyl-ethyl)-6-[2-(2-isopropyl-4-methyl-thiazol-5-yl)-1H-pyrrolo[2,3-b]pyridin-5-yl]pyridine-2-carboxamide] |
| 0.0001 to 10 µM | 0.0001 to 10 µM | CC(C)(C#N)NC(=O)c1cccc(-c2cnc3[nH]c(-c4cnn(C5CCOC5)c4)cc3c2)n1 (stereo not drawn) [Compound P-0173, N-(1-cyano-1-methyl-ethyl)-6-[2-(1-tetrahydrofuran-3-ylpyrazol-4-yl)-1H-pyrrolo[2,3-b]pyridin-5-yl]pyridine-2-carboxamide] |
| 0.0001 to 10 µM | 0.0001 to 10 µM | CC(C)(C#N)NC(=O)c1cccc(-c2cnc3[nH]c(C#Cc4ccccc4)cc3c2)n1 [Compound P-0176, N-(1-cyano-1-methyl-ethyl)-6-[2-(2-phenylethynyl)-1H-pyrrolo[2,3-b]pyridin-5-yl]pyridine-2-carboxamide] |
| 0.0001 to 10 µM | 0.0001 to 10 µM | Cc1nn(C(C)C)cc1-c1cc2cc(-c3cccc(C(=O)NC(C)(C)C#N)n3)cnc2[nH]1 [Compound P-0178, N-(1-cyano-1-methyl-ethyl)-6-[2-(1-isopropyl-3-methyl-pyrazol-4-yl)-1H-pyrrolo[2,3-b]pyridin-5-yl]pyridine-2-carboxamide] |
| 0.0001 to 10 µM | 0.0001 to 10 µM | CC(C)(C#N)NC(=O)c1cccc(-c2cnc3[nH]c(C4=CCSCC4)cc3c2)n1 [Compound P-0180, N-(1-cyano-1-methyl-ethyl)-6-[2-(3,6-dihydro-2H-thiopyran-4-yl)-1H-pyrrolo[2,3-b]pyridin-5-yl]pyridine-2-carboxamide] |
| 0.0001 to 10 µM | 0.0001 to 10 µM | CC(C)(C#N)NC(=O)c1cccc(-c2cnc3[nH]c(C4=CCN(S(=O)(=O)C5CC5)CC4)cc3c2)n1 [Compound P-0188, N-(1-cyano-1-methyl-ethyl)-6-[2-(1-cyclopropylsulfonyl-3,6-dihydro-2H-pyridin-4-yl)-1H-pyrrolo[2,3-b]pyridin-5-yl]pyridine-2-carboxamide] |
